According to US8648105B2, “Diarylthiohydantoin compounds” (The Regents of the University of California, priority 2006, dated 2014):
Positions count from the first letter of the chain named. Entries after “also recorded” stand apart in the source; their conditions may differ.

Experiments:
LogP = type: physicochemical
tumor = assay: Dose regimens of NC53 on tumor volume and luciferase photon emission (FIGS. 17, 18); type: in vivo; details: for tumor size: FIG. 17
Description: FIG. 17 illustrates that under treatment with vehicle solution, tumors continued to increase in size.

urogenital tract = assay: Luciferase transgenic mice with testosterone pellet, urogenital tract weight and photon emission (FIG. 22); type: in vivo; details: castrated mice with testosterone pellet, 10 mg/kg per day, 14 days
Method: FIG. 22 presents results of an experiment conducted with wild type nontransgenic mice (WT), castrated luciferase transgenic mice (Cast), and non-castrated luciferase transgenic mice (Intact). Data are shown for castrated luciferase transgenic mice treated with an implanted testosterone pellet yielding 12.5 mg per kilogram body weight with a 90 day release period (T/Cast), and data are shown for non-castrated luciferase transgenic mice treated with an implanted testosterone pellet yielding 12.5 mg per kilogram body weight with a 90 day release period (Intact+T). […]. (A) Urogenital tract weight at 14 days. (B) Photon emission rate at 14 days. In all cases, a hormone refractory disease state was not induced.
[…]. Moreover, the higher the dose, the lower the PSA level. […]. The weight and rate of photon emission increased for both intact and castrated mice.

[1] = molecular target: T1, androgen receptor (AR) and RNA polymerase II (Pol II) (Homo sapiens, UniProt P10275, T878A); details: 10 uM, 6 hours, LNCaP
T1 sequence (P10275 1-920 T878A): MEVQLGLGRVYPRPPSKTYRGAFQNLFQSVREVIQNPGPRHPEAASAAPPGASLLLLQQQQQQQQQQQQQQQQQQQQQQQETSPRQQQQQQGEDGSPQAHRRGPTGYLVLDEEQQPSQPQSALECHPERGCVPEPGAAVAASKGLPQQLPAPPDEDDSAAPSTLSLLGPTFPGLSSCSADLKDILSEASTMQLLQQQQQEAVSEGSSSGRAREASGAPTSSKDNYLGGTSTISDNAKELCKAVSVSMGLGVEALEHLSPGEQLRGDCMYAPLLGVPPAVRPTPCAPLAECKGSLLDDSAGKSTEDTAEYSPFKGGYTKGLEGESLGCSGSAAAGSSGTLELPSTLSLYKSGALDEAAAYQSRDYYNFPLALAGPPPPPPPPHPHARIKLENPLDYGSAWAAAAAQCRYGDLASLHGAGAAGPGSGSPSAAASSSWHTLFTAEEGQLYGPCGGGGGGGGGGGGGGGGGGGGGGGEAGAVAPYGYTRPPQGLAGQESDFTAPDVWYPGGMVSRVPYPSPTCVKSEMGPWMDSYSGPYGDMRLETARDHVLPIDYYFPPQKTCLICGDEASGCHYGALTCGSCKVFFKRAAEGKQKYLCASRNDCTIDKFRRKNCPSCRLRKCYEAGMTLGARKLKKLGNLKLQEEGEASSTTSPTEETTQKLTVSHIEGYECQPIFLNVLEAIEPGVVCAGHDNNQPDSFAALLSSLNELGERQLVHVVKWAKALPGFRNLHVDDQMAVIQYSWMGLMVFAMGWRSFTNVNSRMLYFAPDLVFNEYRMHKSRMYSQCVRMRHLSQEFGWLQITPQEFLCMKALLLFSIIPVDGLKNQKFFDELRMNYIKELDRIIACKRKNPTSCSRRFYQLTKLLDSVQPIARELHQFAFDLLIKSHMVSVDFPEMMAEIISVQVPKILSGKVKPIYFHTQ
Method: LNCaP (ATCC) cells were plated in full serum. On the day of the experiment, the plate was washed once with 1×PBS and 5% CSS was added for 3 days. […] Each of these compounds was added for 6 hours. In a fourth set of experiments, a control, no additional compound was added (−). 6 hours timepoint was run at 28 cycles.

androgen receptor [2] = molecular target: T2, androgen receptor (Homo sapiens, UniProt P10275, T878A); details: 10 uM (R1881 1 nM), LNCaP
T2 sequence (P10275 1-920 T878A): T1 sequence (P10275 1-920 T878A)

androgen receptor [3] = molecular target: T2, androgen receptor; details: 10 uM, 24 hours, with or without 100 pM R1881, LNCaP
AR = molecular target: T3, AR (Homo sapiens, UniProt P10275); type: cell-based; parameters: Fold induction, AR response reporter
T3 sequence (P10275 1-920): T1 sequence (P10275 1-920 T878A) with A878T
Method: It is well established that PSA levels are indicators of AR activities in prostate cancer. […] The LNCaP-AR cells are a line of lymph node carcinoma of prostate cells transduced with a plasmid that makes express androgen receptors. […] After four days incubation, secreted PSA levels were assayed using PSA ELISA kits (American Qualex, San Clemente, Calif.)

Question: Which results are given for `CNC(=O)c1ccc(N2C(=S)N(c3ccc(C#N)c(C(F)(F)F)c3)C(=O)C23CCC3)cc1F` [NC53, N-methyl-4-[7-(4-cyano-3-trifluoromethylphenyl)-8-oxo-6-thioxo-5,7-diaza-spiro[3.4]oct-5-yl]-2-fluorobenzamide]?
Answer: logP (LogP): 3.2; tumor size (tumor; 1 mg per kg body weight per day): the rate of tumor increase decreased, and the size of the tumor appeared to be stabilizing after about 17 days; tumor size (tumor; 10 mg per kg body weight per day): tumor size decreased with time; photon emission associated with luciferase activity (tumor; 10 mg per kg body weight per day, day 17 vs day 0, FIG. 18): photon emission associated with luciferase activity decreased; urogenital tract weight and photon emission (urogenital tract): decrease in weight and photon emission; AR and Pol II recruitment to PSA enhancer and PSA promoter [1]: prevented androgen receptor (AR) recruitment and RNA polymerase II (Pol II) recruitment to PSA enhancer and to PSA promoter; androgen receptor nuclear translocation (androgen receptor [2]): inhibited androgen receptor nuclear translocation; androgen receptor protein level (androgen receptor [3]): destabilized androgen receptor proteins; also recorded: androgen receptor protein is degraded; PSA levels of LN-AR cells (AR; 100, 200, 500, and 1000 nM, FIG. 20): PSA levels of LN-AR cells decreased; PSA levels (AR; LN-AR cells, FIG. 23): PSA levels decreased
